Laboratory results published in US10385065B2, “Antibacterial compounds” (priority 2014, dated 2019).
Values after ≈ are worked out from the molar mass of the structure shown. Read-outs that look alike come from different tables or passages of the source.

Columns and labels:
Assay type in all cases: cell-based
[1] = system: Staphylococcus aureus ATCC 29213; test: MIC, broth microdilution, S. aureus ATCC 29213
[2] = system: Escherichia coli ATCC 25922; test: MIC, broth microdilution, E. coli ATCC 25922; details: ATCC25922, Table 1, wild type strain
[3] = system: S. aureus NRS482 MRSA FQ resistant; test: MIC, S. aureus NRS482; details: Staphylococcus aureus; Table 2
[4] = system: Haemophilus influenzae ATCC 49247; test: MIC, H. influenzae ATCC 49247; details: ATCC49247, Table 4
[5] = system: human hepatic cell line (HepG2 ATCC HB-8065); test: Human cell viability assay (CellTiter-Glo), HepG2; details: HepG2, 24 h incubation, tested over 1-128 μg/mL, read-out: IC50 values against HepG2
Description: Compounds are assessed for potential non-specific cytotoxic effects against a human hepatic cell line (HepG2 ATCC HB-8065). HepG2 cells are seeded at 20,000 cells/well in 96-well microtitre plates in minimal essential medium (MEM) supplemented with a final concentration of 10% FBS and 1 mM sodium pyruvate. After 24 h compound dilutions are prepared in Dulbecco's minimum essential media (DMEM) supplemented with final concentrations of 0.001% FBS, 0.3% bovine albumin and 0.02% HEPES and added to cells. Compounds are tested in two-fold serial dilutions over a final concentration range of 1-128 μg/mL in a final DMSO concentration of 1% vol/vol. Chlorpromazine is used as a positive control. Cells are incubated with compound at 37° C. and 5% CO2 for a further 24 h, after which time the CellTiter-Glo reagent (Promega) is added. Luminescence is measured on a BMG Omega plate reader. Data are analysed using GraphPad Prism software to determine the concentration of compound that inhibits cell viability by fifty percent (IC50).

[6] = system: S. aureus SACPX1-SP25 MSSA - FQ resistant; test: microbe, parasite or virus in culture; details: Staphylococcus aureus, ATCC 29213 / MSSA, read-out: MIC S. aureus SACPX1-SP25 MSSA - FQ resistant (isogenic mutant of ATCC 29213)
[7] = system: Enterococcus faecium ATCC 19434; test: MIC, E. faecium ATCC 19434; details: ATCC19434, Table 2
[8] = system: S. aureus (MRSA) ATCC 43300; test: MIC, S. aureus ATCC 43300; details: Staphylococcus aureus; Table 2; read-out: MIC S. aureus (MRSA) ATCC 43300 Heterogeneous MRSA strain
S. aureus NRS1 MRSA = test: MIC, S. aureus NRS1; details: Staphylococcus aureus; Table 2; read-out: MIC S. aureus NRS1 MRSA AMG & TET resistant
[9] = system: S. aureus NRS127 MRSA LZD resistant; test: MIC, S. aureus NRS127; details: Staphylococcus aureus; Table 2
[10] = system: S. aureus VRS1 MRSA VAN resistant; test: MIC, S. aureus VRS1; details: Staphylococcus aureus, Table 2
[11] = system: S. epidermidis NRS101 MRSE; test: MIC, S. epidermidis NRS101; details: Staphylococcus epidermidis; Table 2; read-out: MIC S. epidermidis NRS101 MRSE AMG, ERY resistant
[12] = ATCC29213, Table 1, wild type strain, read-out: MIC S. aureus ATCC 29213
[13] = ATCC 29213 / MSSA, Table 2, read-out: MIC S. aureus (MSSA) ATCC 29213 CLSI control strain

SMILES	MIC [1, 12]	MIC [1, 13]	MIC [2]	MIC [3]	MIC [4]	IC50 [5]	MIC [6]	MIC [7]	MIC [8]	MIC (S. aureus NRS1 MRSA)	MIC [9]	MIC [10]	MIC [11]
CC(=O)OCc1nc2c(=O)n(C3CC3)c3c(C)c(-c4cc(F)c(N)cc4F)ccc3c2o1 [Compound 98, [7-(4-amino-2,5-difluorophenyl)-5-cyclopropyl-6-methyl-4-oxo-4H,5H-[1,3]oxazolo[4,5-c]quinolin-2-yl]methyl acetate]	< 1 µg/mL	< 1 µg/mL	1 to 10 µg/mL	< 1 µg/mL	1 to 10 µg/mL	> 100 µg/mL	–	–	–	–	–	–	–
Cc1c(-c2ccc(N)c(F)c2)ccc2c3ocnc3c(=O)n(C3CC3)c12 [Compound 38, 7-(4-amino-3-fluorophenyl)-5-cyclopropyl-6-methyl-oxazolo[4,5-c]quinolin-4-one]	< 1 µg/mL	< 1 µg/mL	1 to 10 µg/mL (≈ 2.86 to 28.6 µM)	1 to 10 µg/mL (≈ 2.86 to 28.6 µM)	< 1 µg/mL	> 100 µg/mL	< 1 µg/mL	> 100 µg/mL	–	–	–	–	–
C[C@H]1COc2c(-c3ccc(C(N)=O)cc3)ccc3c4ocnc4c(=O)n1c23 [Compound 96, 4-[(2S)-2-methyl-15-oxo-4,11-dioxa-1,13-diazatetracyclo[7.6.1.0^5,^16.0^10,^14]hexadeca-5(16),6,8,10(14),12-pentaen-6-yl]benzamide]	1 to 10 µg/mL (≈ 2.77 to 27.7 µM)	1 to 10 µg/mL (≈ 2.77 to 27.7 µM)	10 to 100 µg/mL (≈ 27.7 to 277 µM)	1 to 10 µg/mL (≈ 2.77 to 27.7 µM)	1 to 10 µg/mL (≈ 2.77 to 27.7 µM)	10 to 100 µg/mL (≈ 27.7 to 277 µM)	–	10 to 100 µg/mL (≈ 27.7 to 277 µM)	1 to 10 µg/mL (≈ 2.77 to 27.7 µM)	1 to 10 µg/mL (≈ 2.77 to 27.7 µM)	1 to 10 µg/mL (≈ 2.77 to 27.7 µM)	1 to 10 µg/mL (≈ 2.77 to 27.7 µM)	–
Cc1nc2c(=O)n(C3CC3)c3c(C)c(-c4cc(F)c(N)cc4F)ccc3c2o1 [Compound 4, 7-(4-amino-2,5-difluoro-phenyl)-5-cyclopropyl-2,6-dimethyl-oxazolo[4,5-c]quinolin-4-one]	< 1 µg/mL	< 1 µg/mL	1 to 10 µg/mL (≈ 2.62 to 26.2 µM)	< 1 µg/mL	< 1 µg/mL	10 to 100 µg/mL (≈ 26.2 to 262 µM)	< 1 µg/mL	> 100 µg/mL	< 1 µg/mL	1 to 10 µg/mL (≈ 2.62 to 26.2 µM)	< 1 µg/mL	< 1 µg/mL	–
Cc1c(-c2cc(F)c(N)cc2F)ccc2c3oc(CO)nc3c(=O)n(C3CC3)c12 [Compound 99, 7-(4-amino-2,5-difluorophenyl)-5-cyclopropyl-2-(hydroxymethyl)-6-methyloxazolo[4,5-c]quinolin-4-one]	< 1 µg/mL	< 1 µg/mL	1 to 10 µg/mL (≈ 2.52 to 25.2 µM)	< 1 µg/mL	< 1 µg/mL	–	–	–	< 1 µg/mL	1 to 10 µg/mL (≈ 2.52 to 25.2 µM)	1 to 10 µg/mL (≈ 2.52 to 25.2 µM)	1 to 10 µg/mL (≈ 2.52 to 25.2 µM)	–
NC1CCN(c2nc3c(cc2F)c2ocnc2c(=O)n3C2CC2)C1 (stereo not drawn) [Compound 80, 7-(3-aminopyrrolidin-1-yl)-5-cyclopropyl-8-fluoro-oxazolo[4,5-c][1,8]naphthyridin-4-one]	1 to 10 µg/mL (≈ 3.04 to 30.4 µM)	1 to 10 µg/mL (≈ 3.04 to 30.4 µM)	1 to 10 µg/mL (≈ 3.04 to 30.4 µM)	–	10 to 100 µg/mL (≈ 30.4 to 304 µM)	–	10 to 100 µg/mL (≈ 30.4 to 304 µM)	10 to 100 µg/mL (≈ 30.4 to 304 µM)	–	–	–	–	–
Nc1cc(F)c(-c2cc3c(cc2F)c2ocnc2c(=O)n3C2CC2)cc1F [Compound 69, 7-(4-amino-2,5-difluoro-phenyl)-5-cyclopropyl-8-fluoro-oxazolo[4,5-c]quinolin-4-one]	< 1 µg/mL	< 1 µg/mL	1 to 10 µg/mL (≈ 2.69 to 26.9 µM)	1 to 10 µg/mL (≈ 2.69 to 26.9 µM)	< 1 µg/mL	–	–	> 100 µg/mL	< 1 µg/mL	–	< 1 µg/mL	< 1 µg/mL	1 to 10 µg/mL (≈ 2.69 to 26.9 µM)
Cc1nc2c(=O)n(C3CC3)c3c(C)c(-c4cc(F)c(C(N)=O)cc4F)ccc3c2o1 [Compound 35, 4-(5-cyclopropyl-2,6-dimethyl-4-oxo-oxazolo[4,5-c]quinolin-7-yl)-2,5-difluoro-benzamide]	< 1 µg/mL	< 1 µg/mL	1 to 10 µg/mL (≈ 2.44 to 24.4 µM)	1 to 10 µg/mL (≈ 2.44 to 24.4 µM)	1 to 10 µg/mL (≈ 2.44 to 24.4 µM)	10 to 100 µg/mL (≈ 24.4 to 244 µM)	–	10 to 100 µg/mL (≈ 24.4 to 244 µM)	< 1 µg/mL	1 to 10 µg/mL (≈ 2.44 to 24.4 µM)	–	–	–
Cc1c(-c2cnc(N)nc2)ccc2c3ocnc3c(=O)n(C3CC3)c12 [Compound 14, 7-(2-aminopyrimidin-5-yl)-5-cyclopropyl-6-methyl-oxazolo[4,5-c]quinolin-4-one]	< 1 µg/mL	< 1 µg/mL	10 to 100 µg/mL (≈ 30 to 300 µM)	1 to 10 µg/mL (≈ 3 to 30 µM)	1 to 10 µg/mL (≈ 3 to 30 µM)	10 to 100 µg/mL (≈ 30 to 300 µM)	1 to 10 µg/mL (≈ 3 to 30 µM)	> 100 µg/mL	1 to 10 µg/mL (≈ 3 to 30 µM)	1 to 10 µg/mL (≈ 3 to 30 µM)	–	–	–
